# Experimental data reported in article PMC4721142, “Randomized controlled studies on the efficacy of antiarthritic agents in inhibiting cartilage degeneration and pain associated with progression of osteoarthritis in the rat” (Arthritis Research & Therapy, 2016).
# Key:
# [1] = test system: MMT/MCLT rat model of OA; experiment: MMT/MCLT trial 2 histopathology (same doses); format: in vivo; parameters: key to Total joint score w/o femur / Total joint score: sum: cartilage degeneration scores + mean osteophyte score; settings: for Femoral cartilage degeneration score / Total joint score: mean
# Text: For MMT/MCLT rat knee joints, sections were cut in 200-μm steps; stained with toluidine blue (also with a right and left half per section); and similarly analyzed for cartilage degeneration, proteoglycan loss, collagen damage, and osteophyte formation. Results were averaged across the three sections for an overall semiquantitative score. Regional differences across the tibial plateau were taken into consideration by dividing each section into three zones delineated using an ocular micrometer (outside, middle, and inside). Scores were based on the percentage of area affected within the zone.
# Cartilage degeneration in the tibia was scored on a 5-point scale as detailed in the Methods section of Additional file 1. The total extent of degeneration of the tibial plateau was measured (in micrometers) and included an analysis of cell loss, proteoglycan loss, and collagen damage. Significant cartilage degeneration reflecting any degeneration extending through more than 50 % of the cartilage thickness was also measured. Collagen damage across the medial tibial plateau (the most severely affected section of the two halves) was also quantified.
# Osteophytes and femoral cartilage degeneration were analyzed as detailed in Additional file 1. Scoring of the osteophytes and categorization into small, medium, and large was performed using an ocular micrometer. The actual osteophyte measurement (tidemark to farthest distance point extending toward the synovium) was also recorded. The femoral cartilage degeneration score and the three-zone sum of the tibial cartilage degeneration scores (mean of three levels) were summed to create a total cartilage degeneration score. The mean osteophyte score for each joint was added to this value to create a total joint score. […]
# Histopathology MMT/MCLT Model
# [2] = test system: MIA rat model of OA; experiment: MIA trial 3 digital Randall-Selitto test (weekly i.a. clonidine 4.5 μg, tacrolimus 30 ng, fluocinolone 15 ng, meloxicam 100 μg, tranilast 500 ng, TH 150 μg; clonidine 100 μg/kg s.c.); format: in vivo
# Method: The digital Randall-Selitto (dRS) test is said to be a reliable and repeatable measure of neuropathic, bone, and inflammatory pain behavior in several different models, including those of arthritic or joint pain [29, 31, 32]. Baseline and posttreatment values were evaluated using a dRS test device (IITC Life Science, Woodland Hills, CA, USA). Animals were allowed to acclimate to the testing room before all experimentation and for a minimum of 30 minutes before testing. To ensure that their hind limbs were accessible, the animals were gently suspended in a restraint sling. The joint compression threshold was measured once at each time point for the ipsilateral and contralateral knee joints. Pressure was applied gradually over approximately 10 seconds to the medial and lateral aspects of the knee joint. Measurements were taken from the first observed behavior of vocalization, struggle, or withdrawal. A cutoff value of 600 g was used to prevent injury to the animal.
# Following isoflurane anesthesia, 50 μl (2 mg) of MIA was injected into the synovial space of the left knee. Animals were randomly assigned to groups, and pain behavior was assessed 7, 14, 21, and 28 days following MIA injection and intervention using WB with the Stoelting incapacitance meter (trial 1) or the dRS test (trials 2 and 3). […] Animals received MIA treatment and then saline control or therapeutic. […] Histopathology was performed at each time point and at study termination. All studies were conducted in accordance with the International Association for the Study of Pain Guidelines and were approved by the Algos Therapeutics, Inc. Institutional Animal Care and Use Committee (IACUC) before initiation. Those running the studies were blind to the treatments. See Additional file 1 for further details. […]
# struggle or withdrawal. A cut-off value of 600 g was used to prevent injury to the animal. The mean and standard error of the mean (SEM) were determined for each treatment group.
# Statistical significance was assigned as p ≤ 0.05. The stability of the vehicle group over time was assessed on each testing day (Days 7, 14, 21, and 28) using repeated measures one-way analysis of variance (ANOVA) comparing joint compression thresholds at each experimental time point on a given testing day versus that testing day’s pre-treatment value. Osteoarthritis-related pain in the vehicle group was estimated at each time point on each testing day by comparing ipsilateral (injured) to contralateral (normal) joint compression thresholds using paired t-tests. The progression of osteoarthritis-related pain in the vehicle group was estimated by comparing pre-treatment joint compression thresholds on each testing day versus pre-MIA measurements using repeated measures one-way ANOVA. […]
# thresholds at each experimental time point on a given testing day with vehicle treated animals using an unpaired t-test. The acute effect of Tacrolimus was analyzed by comparing joint compression thresholds at each time point on a given testing day with the corresponding pre-treatment baseline values using repeated measures one-way ANOVA and compared to vehicle treated animals using […]
# values using repeated measures one-way ANOVA. Chronic effects were analyzed by comparing pre-treatment joint compression thresholds on each testing day versus the appropriate Day 7 pre-treatment values using repeated measures one-way ANOVA and by comparing pre-treatment joint compression thresholds with vehicle treated animals on each testing day using an unpaired t-test or one-way ANOVA. Day 7 pre-treatment joint compression thresholds between all groups were assessed using one-way ANOVA. The Dunnett’s multiple comparison post hoc test was used when […]
# dosing were housed three per cage. Animals had free access to food and water and were maintained […]
# The animal colony was maintained at approximately 21 °C. All experiments were conducted in accordance with the International Association for the Study of Pain Guidelines.
# [3] = test system: HeLa cells; experiment: HeLa cell viability (CellTiter-Glo)
# In short: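 HeLa cells with and without drug were tested for viability by CellTiter-Glo luminescence as a toxicity read-out. In the companion NF-κB reporter assay, cells co-transfected with NF-κB firefly and Renilla luciferase plasmids (8:1) were read by Dual-Glo 5 h later, normalized to viable cells and expressed as fold over unstimulated, untreated cells.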
# [4] = tacrolimus 30 ng i.a., clonidine 100 μg/kg s.c.
Structure (SMILES),"Femoral cartilage degeneration score ([1]; i.a., tacrolimus 15 ng)","Total joint score ([1]; i.a., tacrolimus 15 ng)","Femoral cartilage degeneration score [1, 4]","Total joint score [1, 4]","dRS, hours after dosing with significant difference ([2]; day 7) [h]","% decrease, tibial score zone 2 ([1]; vs saline group, i.a., tacrolimus 15 ng, curcumin 30 μg) [%]",Non-toxic concentrations [3] [M],"dRS, hours after dosing with significant difference ([2]; day 28, negative = worse) [h]"
Clc1cccc(Cl)c1N=C1NCCN1 [Clonidine],0.67 ± 0.23,9.13 ± 0.54,0.77 ± 0.28,11.03 ± 0.61,1,,,
"COc1cc(/C=C/C(=O)CC(=O)/C=C/c2ccc(O)c(OC)c2)ccc1O [Curcumin, Diferuloylmethane]",1.63 ± 0.61,9.57 ± 0.91,,,,40,0 to 33.75,
"CC1(C)O[C@@H]2C[C@H]3[C@@H]4C[C@H](F)C5=CC(=O)C=C[C@]5(C)[C@@]4(F)[C@@H](O)C[C@]3(C)[C@]2(C(=O)CO)O1 [Fluocinolone, Fluocinolone Acetonide]",0.8 ± 0.25,9.80 ± 0.51,,,1,,,-24
